Like-named read-outs stand apart in the source and are kept apart here.
Experiments:
[1] = tested on: Spontaneous hypertensive rats; test: Maximum blood pressure lowering rate, oral (Table 4); assay type: in vivo; settings: Rattus norvegicus, 0.01 mmol/kg oral
Source text: (§1) The following Tables 4 and 5 summarize the maximum blood pressure lowering rates and the acute toxicity values (LD50 values) of other typical examples of the compound of formula (I).
In Table 4, 0.01 mmol/kg of each compound was orally administered to spontareous hypertensive rats.

[2] = Acute toxicity LD50, intraperitoneal (Table 5); settings: mouse, in vivo, ip
Source text: as §1
In Table 5, each compound was intraperitoneally administered to mice.

dopamine β-hydroxylase = target: T1, dopamine β-hydroxylase (Bos taurus, UniProt P15101); test: 50% dopamine β-hydroxylase inhibitory concentration; assay type: biochemical
T1 sequence (P15101 1-610): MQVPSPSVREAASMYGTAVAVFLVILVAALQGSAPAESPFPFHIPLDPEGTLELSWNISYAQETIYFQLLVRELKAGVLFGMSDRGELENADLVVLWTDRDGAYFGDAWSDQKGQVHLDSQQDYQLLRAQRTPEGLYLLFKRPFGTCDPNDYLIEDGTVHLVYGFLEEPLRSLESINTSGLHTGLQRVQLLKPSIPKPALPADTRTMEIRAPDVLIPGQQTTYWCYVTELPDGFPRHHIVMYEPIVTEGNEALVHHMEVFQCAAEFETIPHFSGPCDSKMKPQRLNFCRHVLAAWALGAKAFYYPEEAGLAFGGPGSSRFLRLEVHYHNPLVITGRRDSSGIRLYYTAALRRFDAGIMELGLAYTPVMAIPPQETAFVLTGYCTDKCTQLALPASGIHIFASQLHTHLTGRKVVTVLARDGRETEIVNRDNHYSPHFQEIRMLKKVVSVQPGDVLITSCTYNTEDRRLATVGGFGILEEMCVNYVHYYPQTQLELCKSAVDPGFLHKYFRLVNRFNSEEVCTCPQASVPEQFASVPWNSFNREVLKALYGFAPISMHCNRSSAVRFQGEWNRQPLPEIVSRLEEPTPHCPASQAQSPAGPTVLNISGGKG

[3] = ester of formula (I), read-out: Maximum blood pressure lowering rate (%) of the compound of the invention
[4] = read-out: LD50 of the compound of the invention
[5] = corresponding acid, read-out: Maximum blood pressure lowering rate (%) of the 5-substituted picolinic acid
[6] = read-out: LD50 of the 5-substituted picolinic acid
[7] = intraperitoneal, mice, corresponding acid, read-out: LD50 of the 5-substituted picolinic acid

SMILES	inhibition in vivo at 10 µmol/kg [1, 3] [%]	LD50 [2, 4] [mg/kg]	inhibition in vivo at 10 µmol/kg [1, 5] [%]	LD50 [2, 6] [mg/kg]	further results
Cc1c(C)c2c(c(C)c1OC(=O)c1ccc(CCC(Br)CBr)cn1)CCC(C)(CCCC(C)CCCC(C)CCCC(C)C)O2 (racemic) [Example 4, dl-α-tocopheryl 5-(3,4-dibromobutyl)picolinate]	53	> 4000	–	–	–
Cc1c(C)c2c(c(C)c1OC(=O)c1ccc(CCC(Cl)CCl)cn1)CCC(C)(CCCC(C)CCCC(C)CCCC(C)C)O2 (racemic) [Example 5, dl-α-tocopheryl 5-(3,4-dichlorobutyl)picolinate]	53	> 4000	–	–	–
Cc1c(C)c2c(c(C)c1OC(=O)c1ccc(CCCCBr)cn1)CCC(C)(CCCC(C)CCCC(C)CCCC(C)C)O2 (racemic) [Example 6, dl-α-tocopheryl 5-(4-bromobutyl)picolinate]	48	> 4000	–	–	–
Cc1c(C)c2c(c(C)c1OC(=O)c1ccc(CCCCCl)cn1)CCC(C)(CCCC(C)CCCC(C)CCCC(C)C)O2 (racemic) [Example 7, dl-α-tocopheryl 5-(4-chlorobutyl)picolinate]	50	> 4000	–	–	–
Cc1c(C)c2c(c(C)c1OC(=O)c1ccc(Cc3ccccc3)cn1)CCC(C)(CCCC(C)CCCC(C)CCCC(C)C)O2 (racemic) [Example 9, dl-α-tocopheryl 5-benzylpicolinate]	41	> 4000	–	–	–
CCCCOc1ccc(C(=O)Oc2c(C)c(C)c3c(c2C)CCC(C)(CCCC(C)CCCC(C)CCCC(C)C)O3)nc1 (racemic) [Example 14, dl-α-tocopheryl 5-butyloxypicolinate]	36	> 4000	–	–	–
Cc1c(C)c2c(c(C)c1OC(=O)c1ccc(OCCCCCl)cn1)CCC(C)(CCCC(C)CCCC(C)CCCC(C)C)O2 (racemic) [Example 16, dl-α-tocopheryl 5-(4-chlorobutyloxy)picolinate]	40	> 4000	–	–	–
Cc1c(C)c2c(c(C)c1OC(=O)c1ccc(Oc3ccc(Cl)cc3)cn1)CCC(C)(CCCC(C)CCCC(C)CCCC(C)C)O2 (racemic) [Example 17, dl-α-tocopheryl 5-(4-chlorophenyloxy)picolinate]	48	> 4000	–	–	–
CCCCSc1ccc(C(=O)Oc2c(C)c(C)c3c(c2C)CCC(C)(CCCC(C)CCCC(C)CCCC(C)C)O3)nc1 (racemic) [Example 18, dl-α-tocopheryl 5-butylthiopicolinate]	39	> 4000	–	–	–
Cc1c(C)c2c(c(C)c1OC(=O)c1ccc(SCCCCl)cn1)CCC(C)(CCCC(C)CCCC(C)CCCC(C)C)O2 (racemic) [Example 23, dl-α-tocopheryl 5-(3-chloropropylthio)picolinate]	43	> 4000	–	–	–
CCCSc1ccc(C(=O)Oc2c(C)c(C)c3c(c2C)CCC(C)(CCCC(C)CCCC(C)CCCC(C)C)O3)nc1 (racemic) [Example 25, dl-α-tocopheryl 5-propylthiopicolate]	31	> 4000	–	–	–
O=C(O)c1ccc(SCCCCl)cn1 [3-Chloropropyl]	–	–	48	179	IC50 (dopamine β-hydroxylase; Table 6): 550 nM
O=C(O)c1ccc(CCC(Br)CBr)cn1 (stereo not shown) [5-(3,4-dibromobutyl)picolinic acid, reference compound]	–	–	50	–	LD50 [2, 7]: 110 mg/kg
C=CCSc1ccc(C(=O)O)nc1 [Allyl]	–	–	–	–	IC50 (dopamine β-hydroxylase; Table 6): 550 nM
O=C(O)c1ccc(SCc2ccccc2)cn1 [Benzyl]	–	–	–	–	IC50 (dopamine β-hydroxylase; Table 6): 280 nM
CSc1ccc(C(=O)O)nc1 [Methyl]	–	–	–	–	IC50 (dopamine β-hydroxylase; Table 6): 7500 nM
CCCCSc1ccc(C(=O)O)nc1 [Referential Example 1, 5-n-butylthiopicolinic acid]	–	–	36	–	LD50 [2, 7]: 143 mg/kg; IC50 (dopamine β-hydroxylase; Referential Example 1): 510 nM
CC(C)CCSc1ccc(C(=O)O)nc1 [i-Pentyl]	–	–	–	–	IC50 (dopamine β-hydroxylase; Table 6): 210 nM
CCCCCCCCSc1ccc(C(=O)O)nc1 [n-Octyl]	–	–	–	–	IC50 (dopamine β-hydroxylase; Table 6): 23000 nM
CCCSc1ccc(C(=O)O)nc1 [n-Propyl, propylthiopicolinic acid]	–	–	33	167	IC50 (dopamine β-hydroxylase; Table 6): 700 nM
O=C(O)c1ccc(CCCCBr)cn1 [reference compound]	–	–	49	46	–
CCCCOc1ccc(C(=O)O)nc1 [reference compound]	–	–	31	134	–
O=C(O)c1ccc(CCC(Cl)CCl)cn1 (stereo not shown) [reference compound]	–	–	53	41	–
O=C(O)c1ccc(CCCCCl)cn1 [reference compound]	–	–	46	44	–
O=C(O)c1ccc(OCCCCCl)cn1 [reference compound]	–	–	43	172	–
O=C(O)c1ccc(Cc2ccccc2)cn1 [reference compound]	–	–	39	135	–
O=C(O)c1ccc(Oc2ccc(Cl)cc2)cn1 [reference compound]	–	–	56	123	–

From patent publication US4443459A, “α-Tocopheryl ester of 5-substituted picolinic acid and hypotensive composition containing it” (Banyu Pharmaceutical Co., Ltd., priority 1981, dated 1984)
